US10774086B2, “GSK-3 inhibitors” (BRISTOL-MYERS SQUIBB COMPANY, priority 2016, dated 2020)

Legend:
[1] = target: GSK3β (Homo sapiens (Human), UniProt P49841); test: GSK3β kinase assay (Caliper LabChip, fluoresceinated peptide substrate); type: biochemical; conditions: 250 pM enzyme, 20 uM ATP, 1.5 uM peptide, 20 hours room temperature; read-out: GSK3β IC50 (first value of GSK3β/GSK3α)
Description: The kinase assay was performed in V-bottom 384-well plates. […] The reaction was incubated at room temperature for 20 hours and terminated by adding 45 μl of 35 mM EDTA to each sample. The reaction mixture was analyzed on the Caliper LabChip3000 (Caliper, Hopkinton, Mass.) by electrophoretic separation of the unphosphorylated substrate and phosphorylated product. […] Compounds were dissolved at 10 mM in dimethylsulfoxide (DMSO) and evaluated at eleven concentrations. IC50 values were derived by non-linear regression analysis.

[2] = target: GSK3α (Homo sapiens (Human), UniProt P49840); test: GSK3α kinase assay (Caliper LabChip, fluoresceinated peptide substrate); type: biochemical; conditions: 250 pM enzyme, 20 uM ATP, 1.5 uM peptide, 20 hours room temperature; read-out: GSK3α IC50 (second value of GSK3β/GSK3α)
Excerpt: IC50 values were derived by non-linear regression analysis.

[3] = system: pTau; test: pTau assay; type: cell-based

Chain of GSK3β (P49841 whole entry, species assumed): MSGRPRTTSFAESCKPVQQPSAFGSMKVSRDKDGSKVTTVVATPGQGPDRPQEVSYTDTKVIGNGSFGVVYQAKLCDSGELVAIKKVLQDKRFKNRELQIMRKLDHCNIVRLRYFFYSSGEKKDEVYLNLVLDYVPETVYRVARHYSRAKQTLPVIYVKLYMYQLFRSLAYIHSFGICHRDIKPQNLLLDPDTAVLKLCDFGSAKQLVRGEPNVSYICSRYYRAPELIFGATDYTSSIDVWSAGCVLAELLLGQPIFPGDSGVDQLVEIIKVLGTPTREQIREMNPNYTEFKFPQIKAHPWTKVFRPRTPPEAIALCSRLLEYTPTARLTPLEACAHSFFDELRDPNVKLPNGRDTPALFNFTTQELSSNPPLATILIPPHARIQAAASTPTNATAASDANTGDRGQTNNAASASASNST
Chain of GSK3α (P49840 whole entry, species assumed): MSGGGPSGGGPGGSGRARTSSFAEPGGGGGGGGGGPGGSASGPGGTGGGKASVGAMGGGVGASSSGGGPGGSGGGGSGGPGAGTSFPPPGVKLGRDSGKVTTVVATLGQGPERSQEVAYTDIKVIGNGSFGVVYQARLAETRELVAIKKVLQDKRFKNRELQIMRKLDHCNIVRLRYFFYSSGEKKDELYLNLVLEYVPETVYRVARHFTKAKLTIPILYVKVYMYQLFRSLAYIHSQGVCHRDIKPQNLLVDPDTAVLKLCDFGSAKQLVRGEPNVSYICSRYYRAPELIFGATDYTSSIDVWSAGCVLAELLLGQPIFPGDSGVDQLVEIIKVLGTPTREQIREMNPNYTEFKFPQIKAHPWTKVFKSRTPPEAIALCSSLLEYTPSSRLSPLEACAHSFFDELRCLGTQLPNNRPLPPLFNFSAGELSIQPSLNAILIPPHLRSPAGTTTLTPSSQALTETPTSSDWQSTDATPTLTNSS

SMILES | IC50 [1] [nM] | IC50 [2] [nM] | IC50 [3] [nM]
CC1CN(c2ccncc2NC(=O)c2ccnn3cc(-c4ccc(C(F)(F)F)cc4)nc23)CCO1 (stereo not drawn) [Example 26, N-(4-(2-Methylmorpholino)pyridin-3-yl)-2-(4-(trifluoromethyl)phenyl)imidazo[1,2-b]pyridazine-8-carboxamide] | 1.4 | 0.6 | 120
O=C(Nc1cnccc1N1CCC(F)(F)CC1)c1ccnn2ccnc12 [Example 28, N-(4-(4,4-Difluoropiperidin-1-yl)pyridin-3-yl)imidazo[1,2-b]pyridazine-8-carboxamide] | 4.6 | 2 | 140
CC1CN(c2ccncc2NC(=O)c2ccnn3ccnc23)CCO1 (stereo not drawn) [Example 29, N-(4-(2-Methylmorpholino)pyridin-3-yl)imidazo[1,2-b]pyridazine-8-carboxamide] | 3.8 | 3.2 | 250
CC1CN(c2ccncc2NC(=O)c2ccnn3cc(C4CC4)nc23)CCO1 (stereo not drawn) [Example 32, 2-Cyclopropyl-N-(4-(2-methylmorpholino)pyridin-3-yl)imidazo[1,2-b]pyridazine-8-carboxamide] | 2.6 | 0.8 | 60
O=C(Nc1cnccc1-c1ccc(F)cc1)c1ccnn2cc(C3=CCCCC3)nc12 [Example 33, 2-(Cyclohex-1-en-1-yl)-N-(4-(4-fluorophenyl)pyridin-3-yl)imidazo[1,2-b]pyridazine-8-carboxamide] | 6.1 | 1.2 | 820
O=C(Nc1cccnc1)c1ccnn2c(NCC3CC3)cnc12 [Example 39, 3-((Cyclopropylmethyl)amino)-N-(pyridin-3-yl)imidazo[1,2-b]pyridazine-8-carboxamide] | 220 | 900 | > 10000
CC(C)Oc1ccncc1NC(=O)c1ccnn2c(NCC3CC3)cnc12 [Example 41, 3-((Cyclopropylmethyl)amino)-N-(4-isopropoxypyridin-3-yl)imidazo[1,2-b]pyridazine-8-carboxamide] | 6.6 | 3.4 | 290
O=C(Nc1cnccc1N1CCOCC1)c1ccnn2c(NCC3CC3)cnc12 [Example 44, 3-((Cyclopropylmethyl)amino)-N-(4-morpholinopyridin-3-yl)imidazo[1,2-b]pyridazine-8-carboxamide] | 9 | 1.4 | 65
CC(C)Oc1ccncc1NC(=O)c1ccnn2c(NC(=O)C3CC3)cnc12 [Example 46, 3-(Cyclopropanecarboxamido)-N-(4-isopropoxypyridin-3-yl)imidazo[1,2-b]pyridazine-8-carboxamide] | 6 | 51 | 5100

Second part, the compound after the results:

IC50 [1] [nM] | IC50 [2] [nM] | IC50 [3] [nM] | SMILES
0.8 | 0.2 | 49 | O=C(Nc1cnccc1N1CCOCC1)c1ccnn2cc(-c3ccc(C(F)(F)F)cc3)nc12 [Example 25, N-(4-Morpholinopyridin-3-yl)-2-(4-(trifluoromethyl)phenyl)imidazo[1,2-b]pyridazine-8-carboxamide]
19.8 | 11.4 | 760 | O=C(Nc1cnccc1N1CCCCC1)c1ccnn2ccnc12 [Example 27, N-(4-(Piperidin-1-yl)pyridin-3-yl)imidazo[1,2-b]pyridazine-8-carboxamide]
1.9 | 0.4 | 380 | O=C(Nc1cnccc1-c1ccc(F)cc1)c1ccnn2cc(C3CC3)nc12 [Example 30, 2-Cyclopropyl-N-(4-(4-fluorophenyl)pyridin-3-yl)imidazo[1,2-b]pyridazine-8-carboxamide]
0.4 | 0.2 | 120 | O=C(Nc1cnccc1N1CCC(F)(F)CC1)c1ccnn2cc(C3CC3)nc12 [Example 31, 2-Cyclopropyl-N-(4-(4,4-difluoropiperidin-1-yl)pyridin-3-yl)imidazo[1,2-b]pyridazine-8-carboxamide]
0.4 | 0.1 | 28 | O=C(Nc1cnccc1N1CCC(F)(F)CC1)c1ccnn2cc(C3=CCCCC3)nc12 [Example 34, 2-(Cyclohex-1-en-1-yl)-N-(4-(4,4-difluoropiperidin-1-yl)pyridin-3-yl)imidazo[1,2-b]pyridazine-8-carboxamide]
1.6 | 1 | 160 | CC1CN(c2ccncc2NC(=O)c2ccnn3cc(C4=CCCCC4)nc23)CCO1 (stereo not drawn) [Example 35, 2-(Cyclohex-1-en-1-yl)-N-(4-(2-methylmorpholino)pyridin-3-yl)imidazo[1,2-b]pyridazine-8-carboxamide]
5.3 | 1 | 620 | CCOc1ncncc1NC(=O)c1ccnn2cc(-c3ccccc3)nc12 [Example 37, N-(4-Ethoxypyrimidin-5-yl)-2-phenylimidazo[1,2-b]pyridazine-8-carboxamide]
3.6 | 1 | 330 | O=C(Nc1cncnc1OCC(F)(F)F)c1ccnn2cc(-c3ccccc3)nc12 [Example 38, 2-Phenyl-N-(4-(2,2,2-trifluoroethoxy)pyrimidin-5-yl)imidazo[1,2-b]pyridazine-8-carboxamide]
63 | 30 | 3900 | Cc1ccncc1NC(=O)c1ccnn2c(NCC3CC3)cnc12 [Example 40, 3-((Cyclopropylmethyl)amino)-N-(4-methylpyridin-3-yl)imidazo[1,2-b]pyridazine-8-carboxamide]
3.4 | 3.2 | 320 | O=C(Nc1cnccc1-c1ccccc1)c1ccnn2c(NCC3CC3)cnc12 [Example 42, 3-((Cyclopropylmethyl)amino)-N-(4-phenylpyridin-3-yl)imidazo[1,2-b]pyridazine-8-carboxamide]
1.1 | 2 | 41 | O=C(Nc1cnccc1N1CCC(F)(F)CC1)c1ccnn2c(NCC3CC3)cnc12 [Example 43, 3-((Cyclopropylmethyl)amino)-N-(4-(4,4-difluoropiperidin-1-yl)pyridin-3-yl)imidazo[1,2-b]pyridazine-8-carboxamide]
5.2 | 1.6 | 140 | CC1CN(c2ccncc2NC(=O)c2ccnn3c(NCC4CC4)cnc23)CCO1 (stereo not drawn) [Example 45, 3-((Cyclopropylmethyl)amino)-N-(4-(2-methylmorpholino)pyridin-3-yl)imidazo[1,2-b]pyridazine-8-carboxamide]
140 | 110 | 6800 | CC(C)Oc1ccncc1NC(=O)c1ccnn2c(NC(=O)C3CCC3)cnc12 [Example 47, 3-(Cyclobutanecarboxamido)-N-(4-isopropoxypyridin-3-yl)imidazo[1,2-b]pyridazine-8-carboxamide]
